Marks after values point to notes of the source that are not given here.
Tests used:
myosin heavy chain β = molecular target: T1, myosin heavy chain β (Rattus norvegicus, UniProt P02564); assay: Modified biotin switch assay, sites of HNO modification; type: biochemical
T1 construct: Rat myofibrillar preparations, as described in [7], were obtained from frozen ventricles (Pel Freez Biologicals); tissue Pel Freez Biologicals; host or cells: myofibrils from frozen rat ventricles
Protocol: (§1) Rat myofibrillar preparations, as described in [7], were obtained from frozen ventricles (Pel Freez Biologicals) minced in 20 volumes/tissue weight of 4° C. relax buffer (SRB (75 mM KCL, 10 mM imidazole pH 7.2, 2 mM MgCl2) plus 4 mM phosphocreatine, 1 mM ATP, 50 mM BDM, 1 mM benzamidine-HCL, 0.1 mM PMSF, 1 μg/ml leupeptin, 1 μg/ml pepstatin, 1% (v/v) Trixon X-100) and adjusted to 10 mM EDTA. Minced preparations were centrifuged for 8 min at 3000xg and the supernant was decanted. Resulting pellets were resuspended in 10 volumes of SRB plus 1% Triton X-100 and subjected to 6 strokes in a Duall tissue homogenizer and centrifuged as above. Pellets were gently resuspended and centrifuged as above twice more in SRB including 1% (v/v) Triton X-100, twice in SRB lacking Triton X-100 and once in K-60 buffer (60 mM KCL, 20 mM MOPS, 2 mM MgCl2 pH 7) before being resuspended in 5 volumes of K-60.
(§2) Detection of HNO modifications by Modified Biotin Switch. HNO modified thiols were detected using a modification to the standard biotin switch protocol. In brief, 100 μg of rat myofibrils/treatment were diluted to 0.5 μg/μl in HEN (250 mM HEPES pH 7.7, 1 mM EDTA and 0.1 mM neocuproine) including 0.1% (w/v) SDS and exposed to a treatment for 10 min at 37° C. which was subsequently removed by acetone precipitation. Remaining free thiols were blocked by addition of 300 μl of HEN including 2.5% (w/v) SDS and 20 mM N-ethylmaleimide (NEM), incubated for 20 min at 50° C. Excess NEM was removed by acetone precipitation. HNO and/or NO modified thiols were reduced using 5 mM DTT or 1 mM ascorbate in 150 μl of HEN including 1% (w/v) SDS and biotinylated with 0.8 mM Biotin-HPDP (Pierce) for one hour at room temperature. Excess biotin-HPDP was removed by acetone precipitation (2 volumes) and resultant pellets were carefully washed with an additional volume of acetone. Biotinylated proteins were resuspended in 1 ml of HEN including 0.1% (w/v) SDS and captured by incubation with 15 μl of washed, packed Ultralink Immobilized Streptavidin (Pierce) for one hour at room temperature. Beads were washed four times in 50 bead volumes of HEN (twice including 0.1% (w/v) SDS, twice including 600 mM NaCl) and twice with EB (20 mM HEPES pH 7.7, 100 mM NaCl, 1 mM EDTA). Captured proteins were eluted with 40 μl of EB containing 100 mM DTT, mixed with 15 μl of 4×LDS sample buffer, boiled, separated by SDS PAGE and silver stained. For MS studies, biotinylated proteins were digested overnight with trypsin (Promega) prior to capture and washed ten additional times with 5 mM ammonium bicarbonate/20% acetonitrile before being eluted in 100 μl of wash buffer including 100 mM DTT as described. Captured peptides were identified using a LTQ linear ion trap tandem mass spectrometer (ThermoFinnigan, Waltham Mass. USA) with data searched against the rat IPI primary sequence database using the sorcerer searching platform (sagen).
(§3) To investigate the modifications that underlie the difference seen in the functional effect of these two compounds we performed an analysis on the myofilament proteins, using a modified biotin-switch method, followed by mass spectrometry for identification (FIG. 3). Following treatment with HNO or control compounds, unmodified cysteines are blocked with NEM before treatment with a reducing agent and labeling the exposed cysteines with a biotin group (FIG. 3A). In this case, 5 mM DTT was used as the reducing agent because it was shown in the physiological studies to reverse the effect of the treatment. […] Tryptic or chymotryptic peptides containing the modified cysteine residues were captured and identified by LC/MS/MS. […] To parse the role of candidate sites of modification between these two effects a comparative proteomics experiment was designed where modifications specific to NCA treatment would be considered candidates for the Ca^2+ effect while sites identified in common between AS and NCA could be candidates for the force effect (FIG. 3C). […]

tropomyosin (α) = molecular target: T2, tropomyosin (α) (Rattus norvegicus, UniProt P04692); assay: as above; type: biochemical
T2 construct: Rat myofibrillar preparations, as described in [7], were obtained from frozen ventricles (Pel Freez Biologicals); tissue Pel Freez Biologicals; host or cells: myofibrils from frozen rat ventricles
T2 sequence (P04692 whole entry): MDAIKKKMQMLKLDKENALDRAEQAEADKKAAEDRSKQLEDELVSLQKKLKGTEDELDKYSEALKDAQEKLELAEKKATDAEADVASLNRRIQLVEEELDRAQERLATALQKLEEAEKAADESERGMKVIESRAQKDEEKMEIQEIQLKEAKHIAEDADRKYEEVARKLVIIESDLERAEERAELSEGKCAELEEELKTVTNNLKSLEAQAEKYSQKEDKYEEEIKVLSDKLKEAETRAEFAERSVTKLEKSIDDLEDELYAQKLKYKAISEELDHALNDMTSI
Protocol: as §1, §2, §3

T1 sequence (P02564 whole entry): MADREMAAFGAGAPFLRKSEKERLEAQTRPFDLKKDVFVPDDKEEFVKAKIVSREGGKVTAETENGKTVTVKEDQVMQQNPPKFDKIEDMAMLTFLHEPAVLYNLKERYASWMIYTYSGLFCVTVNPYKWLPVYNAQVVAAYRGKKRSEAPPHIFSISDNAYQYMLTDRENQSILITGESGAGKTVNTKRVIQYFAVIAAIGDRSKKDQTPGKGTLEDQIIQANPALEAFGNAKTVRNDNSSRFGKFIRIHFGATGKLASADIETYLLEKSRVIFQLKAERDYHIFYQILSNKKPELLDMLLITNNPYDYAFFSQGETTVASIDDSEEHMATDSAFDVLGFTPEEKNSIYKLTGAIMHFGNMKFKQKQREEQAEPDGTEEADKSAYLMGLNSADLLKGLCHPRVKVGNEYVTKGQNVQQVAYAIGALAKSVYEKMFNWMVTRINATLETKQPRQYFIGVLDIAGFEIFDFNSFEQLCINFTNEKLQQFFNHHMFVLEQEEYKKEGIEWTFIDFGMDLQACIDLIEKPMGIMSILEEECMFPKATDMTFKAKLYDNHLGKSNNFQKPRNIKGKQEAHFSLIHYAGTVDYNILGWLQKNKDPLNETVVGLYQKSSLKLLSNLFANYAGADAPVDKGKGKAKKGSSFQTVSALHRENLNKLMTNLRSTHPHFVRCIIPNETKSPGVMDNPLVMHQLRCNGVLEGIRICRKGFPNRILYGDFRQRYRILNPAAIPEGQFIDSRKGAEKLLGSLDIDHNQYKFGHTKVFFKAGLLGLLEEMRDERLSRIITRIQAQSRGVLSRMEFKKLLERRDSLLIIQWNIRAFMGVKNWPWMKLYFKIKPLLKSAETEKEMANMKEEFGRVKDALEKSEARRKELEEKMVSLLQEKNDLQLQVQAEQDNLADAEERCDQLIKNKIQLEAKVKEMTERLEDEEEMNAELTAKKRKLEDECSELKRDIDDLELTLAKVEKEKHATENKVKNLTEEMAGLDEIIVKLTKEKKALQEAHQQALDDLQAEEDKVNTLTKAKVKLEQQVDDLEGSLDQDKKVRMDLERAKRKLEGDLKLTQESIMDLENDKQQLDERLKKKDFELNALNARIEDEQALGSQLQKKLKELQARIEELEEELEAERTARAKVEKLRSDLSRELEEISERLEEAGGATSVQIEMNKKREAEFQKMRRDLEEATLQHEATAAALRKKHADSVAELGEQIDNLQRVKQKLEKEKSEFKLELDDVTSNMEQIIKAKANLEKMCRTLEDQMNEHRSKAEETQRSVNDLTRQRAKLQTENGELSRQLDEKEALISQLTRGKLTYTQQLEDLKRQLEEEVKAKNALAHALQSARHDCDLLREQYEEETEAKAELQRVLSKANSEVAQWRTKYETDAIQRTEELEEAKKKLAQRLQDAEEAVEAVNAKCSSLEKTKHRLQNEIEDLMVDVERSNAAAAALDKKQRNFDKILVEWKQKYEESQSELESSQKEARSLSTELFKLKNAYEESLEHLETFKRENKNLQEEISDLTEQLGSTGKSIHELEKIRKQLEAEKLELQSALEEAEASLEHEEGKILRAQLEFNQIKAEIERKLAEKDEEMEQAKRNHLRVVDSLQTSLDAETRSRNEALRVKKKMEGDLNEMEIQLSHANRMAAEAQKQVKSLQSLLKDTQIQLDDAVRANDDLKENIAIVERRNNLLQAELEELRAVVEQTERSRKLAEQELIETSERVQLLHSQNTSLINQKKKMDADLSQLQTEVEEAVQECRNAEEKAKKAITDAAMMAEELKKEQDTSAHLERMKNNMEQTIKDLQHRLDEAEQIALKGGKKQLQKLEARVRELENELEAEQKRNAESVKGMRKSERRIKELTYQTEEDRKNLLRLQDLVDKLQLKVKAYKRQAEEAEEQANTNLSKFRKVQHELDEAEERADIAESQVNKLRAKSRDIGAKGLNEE

Q: With `CC(=O)OC1(N=O)CCCCC1` [NCA, 1-nitrosocyclohexylacetate] as the compound, how does the “number of independent observations of peptide” value (myosin heavy chain β; Cys 947, tryptic peptide KLEDECELKR, 25 μM NCA or 500 μM AS) read?
A: 3

Q: And the “Position of modified Cys” value (myosin heavy chain β; myosin heavy chain (β), Table 2)?
A: 947(β)*

Q: And the “number of independent observations of peptide” value (tropomyosin (α); Cys 190, tryptic peptide CLELEEELKTVTNNLK, 25 μM NCA or 500 μM AS)?
A: 3^a

Q: And the “Position of modified Cys” value (tropomyosin (α); α-tropomyosin, Table 2)?
A: 190

— patent US20120231482A1, “METHOD, KIT OR DIAGNOSTIC FOR THE DETECTION OF REAGENTS WHICH INDUCE ALTERED CONTRACTILITY” (THE JOHNS HOPKINS UNIVERSITY, priority 2009, published 2012)
